The target of assay [1] is T1, erbB3-erbB2 heteromerization (Homo sapiens, UniProt P04626).
T1 construct: the ectodomains of erbB receptors were immobilized on the surface chip; erbB2: Dr. Che Law, Xcyte Therapeutics; erbB3: Dr. Mark A. Lemmon
Kind of assay: SPR inhibition of HRGβ1-induced binding of ErbB3 to immobilized ErbB2. Particulars: peptide 10 μm, ErbB3 300 nm, HRGβ1 5 μM. On the procedure:
(§1) The effect of cysteine-knot mimetics on receptor self-associations, was examined using a Biacore assay in which the ectodomains of erbB receptors were immobilized on the surface chip and the ectodomain of erbB3 was injected at 300 nM concentrations either alone or in the presence of 5 μM hereglunin HRGβ1.
(§2) The effect of the erbB peptides on heregulin-induced receptor self-associations was studied by preinjecting them at 10 μM followed by injection of erbB3-HRGβ1 (FIG. 4; 1B, 2B, 3B).
(§3) Binding experiments were performed with the surface plasmon resonance based biosensor instrument Biacore 3000 (Biacore AB, Uppsala, Sweden), at 25° C. […] (erbB2) and Dr. Mark A. Lemmon, Department of Biochemistry and Biophysics, University of Pennsylvania School of Medicine (erbB1 and erbB3). Immobilization of the erbB receptors in the sensor surface was performed following the standard amine coupling procedure according to manufacturer's instructions. Briefly, 35 μl of a solution containing 0.2 M N-ethyl-N′-(dimethylaminopropyl) carbodiimide (EDC) and 0.05 M N-hydroxysuccinimide (NHS), were injected at a flow rate of 5 μl/min to activate carboxyl groups on the sensor chip surface. Receptors (40 ng/ml in 10 mM NaOAc buffer, pH 5.0) were flowed over the chip surface at a flow rate of 20 μl/min until the desired level bound protein was reached. Unreacted protein was washed out and unreacted activated groups were blocked by the injection of 35 μl of 1 M ethanolamine at 5 μl/min. […] A reference surface was generated simultaneously under the same conditions but without receptor injection and used as a blank to correct for instrument and buffer artifacts. Peptides were injected at variable concentrations at 20 μl/min flow rate and binding to the receptors immobilized on the chip was monitored in real time. Each sensorgram consists of an association phase (first 240 s), reflecting binding of the injected peptide to the receptor, followed by a dissociation phase (300 s), during which the running buffer is passed over the chip and the bound peptide is being washed off the receptor surface.

In another assay the target is T2, ErbB1 (Homo sapiens, UniProt P00533).
T2 construct: gift of Dr. Mark A. Lemmon, University of Pennsylvania School of Medicine
The assay can be described thus: Surface plasmon resonance (Biacore) binding to immobilized ErbB1 extracellular domain. The conditions noted are these: immobilized extracellular domain, surface plasmon resonance; read-out: KD (μM) ErbB1. As to the method:
(§4) The designed erbB peptides were tested for binding to erbB receptors using surface plasmon resonance (Biacore) technology (described supra) using soluble erbB-1 and erbB-3. The response was plotted in real time in the form of sensorgram curves.
as §3
For orientation: In SPR one partner is held on a chip, and binding of the other changes the refractive index at the surface.

In another assay the target is T3, ErbB3 (Homo sapiens, UniProt P21860).
T3 construct: gift of Dr. Mark A. Lemmon, University of Pennsylvania School of Medicine
The assay can be described thus: Surface plasmon resonance (Biacore) binding to immobilized ErbB3 extracellular domain. Particulars: immobilized extracellular domain, surface plasmon resonance; read-out: KD (μM) ErbB3. As to the method:
as §4, §3

Assay [2] concerns the target T4, erbB3-erbB1 heteromerization (Homo sapiens, UniProt P00533).
T4 construct: the ectodomains of erbB receptors were immobilized on the surface chip; erbB1 and erbB3: gift of Dr. Mark A. Lemmon
Kind of assay: SPR inhibition of HRGβ1-induced binding of ErbB3 to immobilized ErbB1. Particulars: peptide 10 μm, ErbB3 300 nm, HRGβ1 5 μM. As to the method:
as §1, §2, §3

In assay [3] the target is T5, erbB2-erbB4 receptor heteromerization in the 32D-E2/E4 cells (Homo sapiens, UniProt P04626).
T5 construct: dimerization of native full-length ErbB receptors was studied using the 32D cell lines transfected with different erbB receptors; host or cells: 32D cells (32D-E2/E4)
The assay can be described thus: Chemical cross-linking and immunoblotting of heregulin-induced receptor dimerization in 32D-E2/E4 cells. The conditions noted are these: dose-dependent, FIG. 5B, read-out: apparent IC50 of inhibition of receptor dimerization. The format is cell-based. As to the method:
Effect of the ErbB peptides on biochemically defined dimerization of native full-length ErbB receptors was studied using the 32D cell lines transfected with different erbB receptors. 32D-E1 cells were transfected with erbB1; 32D-E2/E3 with erbB2 and erbB3; and 32D-E2/E4 with erbB2 and erbB4.
32D cell transfectants with ErbB receptors (gift from Dr. Jacalyn H. Pierce, National Cancer Institute) were grown in RPMI 1640, 10% FBS and 5% WEHI medium (GenoQuest, Interlukin-3 supplement) and respective antibiotics, i.e. 32D-E1 (gptr), 32D-E2/E3 (neor/gptr) and 32D-E2/E4 (neor/gptr) (29). The WEHI medium was withdrawn and cells were pre-incubated with ErbB peptides for 2 hours at 37° C. before adding 10 μg/ml EGF (for 32D-E1, Collaborative Biomedical Products) or 10 μg/ml HRG 1 (for 32D-E2/E3 or 32D E2/E4, R&D Systems) and further incubated at 37° C. for 24-48 hours. The cell viability was detected with propidium iodide staining followed by flow cytometry quantification. For the cross-linking analysis, approximately 2×10^6 cells were suspended in RPMI 1640 medium containing 0.1% BSA and 10 mM HEPES, and pre-incubated with ErbB peptides for 2 hours at 37° C. before adding 10 μg/ml EGF or 10 μg/ml Heregulin-β1 EGF domain and further incubated at 37° C. for 10-15 minutes. Cells were rinsed with PBS and incubated in 2 mM BS^3/PBS at 4° C. for 45 minutes. […]

Assay [4] has as its target T6, erbB3-erbB3 homomerization (Homo sapiens, UniProt P21860).
T6 construct: the ectodomains of erbB receptors were immobilized on the surface chip; erbB3: gift of Dr. Mark A. Lemmon
The assay can be described thus: SPR inhibition of HRGβ1-induced binding of ErbB3 to immobilized ErbB3. Particulars: peptide 10 μm, ErbB3 300 nm, HRGβ1 5 μM. On the procedure: as §1, §2, §3

In a further assay the target is T7, ErbB2 (Homo sapiens, UniProt P04626).
T7 construct: provided by Dr. Che Law, Xcyte Therapeutics, Seattle
The assay can be described thus: Surface plasmon resonance (Biacore) binding to immobilized ErbB2 extracellular domain. Particulars: immobilized extracellular domain, surface plasmon resonance; read-out: KD (μM) ErbB2. As to the method: The designed erbB peptides were tested for binding to erbB receptors using surface plasmon resonance (Biacore) technology (described supra) using soluble erbB-1 and erbB-3. The response was plotted in real time in the form of sensorgram curves. Dissociation constants (Kd) were determined as described (Park, et al. 2000, Nat. Biotechnol. 18:194-198).
A sensorgram for binding of B2-S22-APE peptide to erbB receptors immobilized on the sensor chip was performed.
as §3

The structures appear in SMILES notation. Bridge positions count the residues as written; N and C are the ends. Peptide text beside a SMILES is read from it.

T6 sequence (P21860 20-643 limits assumed): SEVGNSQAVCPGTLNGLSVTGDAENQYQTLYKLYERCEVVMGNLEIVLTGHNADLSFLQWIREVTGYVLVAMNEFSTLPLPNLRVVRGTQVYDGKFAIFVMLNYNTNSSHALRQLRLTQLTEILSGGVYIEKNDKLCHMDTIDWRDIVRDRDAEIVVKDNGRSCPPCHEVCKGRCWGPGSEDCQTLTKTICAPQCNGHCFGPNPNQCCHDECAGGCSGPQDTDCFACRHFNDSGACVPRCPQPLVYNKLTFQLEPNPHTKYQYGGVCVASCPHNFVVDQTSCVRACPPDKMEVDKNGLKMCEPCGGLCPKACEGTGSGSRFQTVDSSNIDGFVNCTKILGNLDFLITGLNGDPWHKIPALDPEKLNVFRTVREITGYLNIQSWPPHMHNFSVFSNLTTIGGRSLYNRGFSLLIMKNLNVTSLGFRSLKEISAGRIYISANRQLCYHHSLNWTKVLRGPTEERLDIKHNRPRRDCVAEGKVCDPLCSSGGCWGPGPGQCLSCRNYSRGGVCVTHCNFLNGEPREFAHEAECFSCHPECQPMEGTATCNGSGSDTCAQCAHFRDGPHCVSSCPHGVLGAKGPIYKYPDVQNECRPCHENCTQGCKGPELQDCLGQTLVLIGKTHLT
T3 sequence (P21860 20-643 limits assumed): as above
T5 sequence (P04626 23-1255, one chain of several): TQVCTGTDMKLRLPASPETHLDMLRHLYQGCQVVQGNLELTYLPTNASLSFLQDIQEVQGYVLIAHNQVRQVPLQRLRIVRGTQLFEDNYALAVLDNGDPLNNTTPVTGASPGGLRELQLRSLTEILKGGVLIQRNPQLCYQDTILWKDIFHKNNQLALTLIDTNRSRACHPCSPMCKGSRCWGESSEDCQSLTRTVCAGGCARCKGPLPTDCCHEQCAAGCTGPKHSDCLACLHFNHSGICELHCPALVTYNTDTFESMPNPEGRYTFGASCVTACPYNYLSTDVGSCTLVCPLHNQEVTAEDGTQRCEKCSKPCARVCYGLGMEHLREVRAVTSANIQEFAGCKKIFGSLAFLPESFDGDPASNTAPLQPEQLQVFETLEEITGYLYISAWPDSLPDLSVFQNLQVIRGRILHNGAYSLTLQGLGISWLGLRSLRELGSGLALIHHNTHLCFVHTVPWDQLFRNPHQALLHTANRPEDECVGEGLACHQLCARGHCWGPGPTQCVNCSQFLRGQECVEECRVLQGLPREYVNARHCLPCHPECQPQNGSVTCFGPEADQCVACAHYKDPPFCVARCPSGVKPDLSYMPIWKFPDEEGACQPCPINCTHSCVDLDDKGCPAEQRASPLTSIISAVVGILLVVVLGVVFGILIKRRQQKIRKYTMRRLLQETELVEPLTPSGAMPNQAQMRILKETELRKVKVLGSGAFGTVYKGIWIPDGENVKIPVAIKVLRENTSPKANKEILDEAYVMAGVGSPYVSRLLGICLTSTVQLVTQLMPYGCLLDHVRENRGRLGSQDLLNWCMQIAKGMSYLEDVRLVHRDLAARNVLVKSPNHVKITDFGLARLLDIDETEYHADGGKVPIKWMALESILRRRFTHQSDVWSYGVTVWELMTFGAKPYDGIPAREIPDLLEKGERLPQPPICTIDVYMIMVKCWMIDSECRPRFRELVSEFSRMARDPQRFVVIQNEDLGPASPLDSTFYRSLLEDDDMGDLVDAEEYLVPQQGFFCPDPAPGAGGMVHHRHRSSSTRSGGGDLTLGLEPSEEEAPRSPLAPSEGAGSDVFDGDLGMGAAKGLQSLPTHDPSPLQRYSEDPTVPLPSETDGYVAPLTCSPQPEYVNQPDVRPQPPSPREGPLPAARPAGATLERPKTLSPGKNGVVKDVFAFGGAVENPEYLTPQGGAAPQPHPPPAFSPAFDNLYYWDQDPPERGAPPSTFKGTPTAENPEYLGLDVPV
T2 sequence (P00533 25-645 limits assumed): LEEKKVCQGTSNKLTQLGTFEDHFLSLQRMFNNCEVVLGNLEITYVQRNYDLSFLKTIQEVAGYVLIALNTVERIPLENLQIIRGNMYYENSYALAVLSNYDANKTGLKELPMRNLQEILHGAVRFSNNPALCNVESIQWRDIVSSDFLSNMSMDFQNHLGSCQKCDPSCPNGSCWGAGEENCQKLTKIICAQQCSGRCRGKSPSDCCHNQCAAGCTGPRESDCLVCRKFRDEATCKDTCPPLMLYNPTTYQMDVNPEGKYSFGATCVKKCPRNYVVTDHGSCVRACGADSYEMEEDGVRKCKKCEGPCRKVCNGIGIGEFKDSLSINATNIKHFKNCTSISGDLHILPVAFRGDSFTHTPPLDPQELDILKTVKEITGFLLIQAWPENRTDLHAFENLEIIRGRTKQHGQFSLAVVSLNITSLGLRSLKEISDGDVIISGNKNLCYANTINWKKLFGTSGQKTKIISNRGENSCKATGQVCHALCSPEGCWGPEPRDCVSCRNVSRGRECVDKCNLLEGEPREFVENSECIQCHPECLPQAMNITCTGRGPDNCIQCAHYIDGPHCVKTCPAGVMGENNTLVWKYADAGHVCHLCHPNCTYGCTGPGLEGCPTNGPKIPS
T4 sequence (P00533 25-645 limits assumed, one chain of several): as the sequence (P00533 25-645 limits assumed) above
T7 sequence (P04626 23-652 limits assumed): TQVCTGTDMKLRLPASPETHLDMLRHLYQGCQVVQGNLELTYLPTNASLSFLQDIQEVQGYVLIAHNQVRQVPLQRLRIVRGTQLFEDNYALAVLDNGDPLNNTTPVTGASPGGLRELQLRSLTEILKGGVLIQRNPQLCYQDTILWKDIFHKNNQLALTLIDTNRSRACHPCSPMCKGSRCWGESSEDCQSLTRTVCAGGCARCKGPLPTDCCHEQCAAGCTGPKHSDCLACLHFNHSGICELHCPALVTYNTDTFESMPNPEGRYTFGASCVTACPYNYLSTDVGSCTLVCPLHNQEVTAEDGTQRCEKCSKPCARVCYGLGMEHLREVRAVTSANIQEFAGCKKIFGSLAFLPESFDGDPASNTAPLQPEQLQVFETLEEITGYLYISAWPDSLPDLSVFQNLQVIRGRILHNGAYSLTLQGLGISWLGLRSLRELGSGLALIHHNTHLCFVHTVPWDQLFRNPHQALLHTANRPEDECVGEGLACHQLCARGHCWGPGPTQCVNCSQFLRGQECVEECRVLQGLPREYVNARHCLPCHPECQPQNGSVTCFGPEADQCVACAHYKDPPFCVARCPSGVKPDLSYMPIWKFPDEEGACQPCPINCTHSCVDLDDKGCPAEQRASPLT
T1 sequence (P04626 23-652 limits assumed, one chain of several): as the sequence (P04626 23-652 limits assumed) above

For the compound `C[C@@H]1NC(=O)CNC(=O)[C@H](CCC(=O)O)NC(=O)[C@H](CCC(=O)O)NC(=O)[C@H](CC(=O)O)NC(=O)[C@@H]2CCCN2C(=O)[C@H](Cc2ccccc2)NC(=O)[C@@H](NC(=O)[C@@H](N)Cc2ccc(O)cc2)CSSC[C@@H](C(=O)N[C@@H](Cc2ccc(O)cc2)C(N)=O)NC1=O` [B2-S22-AFA, YCFPDEEGACY] (H-YCFPDEEGACY-NH2; disulfide 2-10), the “Percent Inhibition ErbB2” value in assay [1] came to 82.5%. Moreover, the dissociation constant Kd (as a rule, the concentration at which binding is half-saturated) at ErbB1 is 0.407 µM; at ErbB3, 0.429 µM; on ErbB2, 0.302 µM. In addition, the “Percent Inhibition ErbB1” value in assay [2] turned out to be 78.4%. Also, the IC50 (as a rule, the concentration at which inhibition is half-maximal) in assay [3] was 800 nM. Further, in assay [4], the “Percent Inhibition ErbB3” value stood at 61.7%.

(Values after patent US8962793B2, “ErbB interface peptidomimetics and methods of use thereof” (The Trustees of the University of Pennsylvania, priority 2001, dated 2015).)
